Assay results from article doi:10.1101/2023.05.15.540887, “Comparative analysis of drug-like EP300/CREBBP acetyltransferase inhibitors” (bioRxiv, 2023).

What was measured:
[1] = HPLC analysis of photocaged inhibitor release (photodeprotection); assay type: physicochemical; details: 302 nm or 365 nm light, aqueous solution or buffer
Description: One potential reason EP300/CREBBP acetyltransferase inhibitors are not actively being evaluated in clinical trials is on-target toxicity.[10] Thus, these molecules may benefit from strategies to direct them more specifically to malignant – as opposed to healthy – tissues. Light-activated drug release provides one potential approach.[38] […] Considering the studies above we wondered: could the high potency of the CPI-1612 scaffold enable conditional release of an active EP300/CREBBP inhibitor? To explore this, we prepared a photocaged CPI-1612 analogue (4) (Fig. 5a). […] Parent inhibitor 5 was synthesized based on the published route[40] and derivatized with nitrobenzyl chloroformate to produce the photocaged analogue 4 (Scheme S1). […] Cells were then incubated for 3 h, harvested, and assessed for changes in EP300/CREBBP-dependent H3K18Ac. […]
To assess the ability of 4 to undergo photodeprotection to form 5 in the presence of UV light, we analyzed model reactions by HPLC. […] To assess conversion of 4 to 5, irradiated reactions and controls were analyzed using an Agilent 1260 Infinity HPLC equipped with a Phenomenenex Kinetex C18 column (2.6 μm, 100 Angstrom, 100 × 4.6 mm inner diameter, H20-280322) and UV detector with monitoring at 280 nm. […]

[2] = biological target: T1, EP300 catalytic domain (Homo sapiens, UniProt Q09472); assay: TR-FRET assay of EP300-catalyzed acetylation of a histone H3 peptide; assay type: biochemical; details: 50 nM H3 peptide and 200 μM acetyl-CoA
T1 construct: disrupt the activity of EP300 catalytic domain; purchased Enzo BML-SE451-0100
T1 sequence (Q09472 1287-1663 limits assumed): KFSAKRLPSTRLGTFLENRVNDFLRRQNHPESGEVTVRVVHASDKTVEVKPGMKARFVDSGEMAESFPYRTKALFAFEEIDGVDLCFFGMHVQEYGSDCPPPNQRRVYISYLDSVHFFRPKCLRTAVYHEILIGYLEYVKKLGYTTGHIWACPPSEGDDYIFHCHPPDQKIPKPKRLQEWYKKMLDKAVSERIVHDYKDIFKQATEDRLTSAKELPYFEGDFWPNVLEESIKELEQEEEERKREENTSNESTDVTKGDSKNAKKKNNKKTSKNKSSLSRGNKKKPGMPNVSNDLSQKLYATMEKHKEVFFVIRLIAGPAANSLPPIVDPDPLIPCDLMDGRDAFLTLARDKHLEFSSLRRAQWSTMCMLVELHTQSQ
Procedure: Reaction mixtures were incubated for 1 h prior to addition of Alexa Fluor 647-labeled anti-H3K9Ac antibody and Europium-labeled streptavidin.
Briefly, an enzyme mix was made consisting of EP300 (100 nM; Enzo BML-SE451-0100) in assay buffer (25 mM HEPES pH 7.5, 150 mM NaCl, 2 mM DTT, 0.0001% Tween-20, 0.1 mg/m acetylated bovine serum albumin). This enzyme mix (3 μL) was added to white solid-bottom 1536-well plates (Greiner 789175) using a BioRaptr 2.0 Flying Reagent Dispenser (Let’s Go Robotics). […] Plates were read using a PHERAstar FSX microplate reader with HTRF optical module (BMG LabTech) and normalized to no enzyme (negative) and DMSO (neutral) controls. Standard curves were generated through titration of peptide substrate and acetylated peptide [Lys(Ac)9]-Histone H3 (1-21; AnaSpec AS-64191) to benchmark activity. […] Replicate activity measurements in the presence of inhibitors were averaged and half-maximal inhibition values calculated from the nonlinear fit of dose-response data using GraphPad Prism 9.

[3] = tested on: EP300/CREBBP-dependent H3K18Ac in MCF-7 cells; assay: Cellular photouncaging, H3K18Ac Western blot in MCF-7 cells; assay type: cell-based, human; details: MCF-7, 10 or 25 μM
Description: One potential reason EP300/CREBBP acetyltransferase inhibitors are not actively being evaluated in clinical trials is on-target toxicity.[10] Thus, these molecules may benefit from strategies to direct them more specifically to malignant – as opposed to healthy – tissues. Light-activated drug release provides one potential approach.[38] […] Considering the studies above we wondered: could the high potency of the CPI-1612 scaffold enable conditional release of an active EP300/CREBBP inhibitor? To explore this, we prepared a photocaged CPI-1612 analogue (4) (Fig. 5a). […] Parent inhibitor 5 was synthesized based on the published route[40] and derivatized with nitrobenzyl chloroformate to produce the photocaged analogue 4 (Scheme S1). […] To test whether active EP300/CREBBP inhibitor release could be controlled by light, we incubated cells with […] (10 or 25 μM), washed to remove inhibitor in media, and irradiated them for 1 min at 302 nm (Fig. 5e). Cells were then incubated for 3 h, harvested, and assessed for changes in EP300/CREBBP-dependent H3K18Ac. […] Although beyond the scope of the current study, we envision targeted release of potent EP300/CREBBP inhibitors could find utility in malignancies already treated using phototherapy, such as head and neck cancers,[41] as well as valuable applications in basic science.[42] […]

[4] = set-up: method as in ref 40 = [40]; 40. Wilson J. E.; Brucelle F.; Levelle J. R. P300/CBP HAT inhibitors . WO2019161162A1 , 2019 .; details: patent literature; cited from earlier work

| photodeprotection to 5 (HPLC reaction monitoring) [1] | decrease in EP300/CREBBP inhibitor potency of caged relative to uncaged analogue 5 [2] | Compound | change in H3K18Ac, treated and exposed to light (UV) ([3]; 302 nm 1 min, then 3 h) | change in H3K18Ac, treated only (no irradiation) ([3]; no UV) | in vivo antitumor activity [4] |
| --- | --- | --- | --- | --- | --- |
| facile conversion of 4 to 5 | ~ 50 fold | COc1cc(COC(=O)N(C[C@@H](C)c2ccc(C#N)cc2)C(C(=O)Nc2ccc(-c3cnn(CC(=O)N4CCCC4)c3)cn2)c2ccccc2)c([N+](=O)[O-])cc1OC (some centres unmarked) [Compound 4] | clear decreases in H3K18Ac | no such effect |  |
|  |  | C[C@H](CNC(C(=O)Nc1ccc(-c2cnn(CC(=O)N3CCCC3)c2)cn1)c1ccccc1)c1ccc(C#N)cc1 (some centres unmarked) [Compound 5] |  |  | potent in vivo antitumor activity |
